# Experimental data as given in patent US6790957B2, “Triazole derivatives useful in therapy” (Pfizer, Inc., priority 1996, dated 2004).
# Read-outs that look alike come from different tables or passages of the source.
# Experiment: Aqueous solubility of phosphate prodrugs compared with parent compounds
# Assay type: physicochemical
# Conditions: compounds of Examples in the form of their disodium salts
# [1] = water (aqueous), read-out: Solubility
solubility [mg/mL],solubility [1] [mg/mL],SMILES
>50,–,"C[C@@H](c1ccc(-c2ccnn2C)cc1)[C@@](Cn1cncn1)(OP(=O)([O-])[O-])c1ccc(F)cc1F.[Na+].[Na+] [Example 8, (2R,3S)-2-(2,4-Difluorophenyl)-3-[4-(1-methylpyrazol-5-yl)phenyl]-1-(1,2,4-triazol-1-yl)-2-butyl disodium phosphate]"
–,> 150,"C[C@@H](c1ncncc1F)[C@@](Cn1cncn1)(OP(=O)(O)O)c1ccc(F)cc1F [Example 3, (2R,3S)-2-(2,4-Difluorophenyl)-3-(5-fluoro-4-pyrimidinyl)-1-(1H-1,2,4-triazol-1-yl)-2-butyl dihydrogen phosphate]"
–,> 150,"O=P(O)(O)OC(Cn1cncn1)(Cn1cncn1)c1ccc(F)cc1F [Example 1, 2-(2,4-Difluorophenyl)-1,3-bis(1H-1,2,4-triazol-1-yl)-2-propyl Dihydrogen Phosphate]"
